Measurements published in patent publication US4097599A, “Triazoles” (Commonwealth Scientific and Industrial Research Organization, priority 1973, dated 1978).
Converted amounts (≈) assume the structure as drawn. Read-outs that look alike come from different tables or passages of the source.

Experiments:
[1] = tested on: Boophilus microplus larvae; assay: Acaricide testing: toxicity to Boophilus microplus larvae; assay type: in vivo, Boophilus microplus (cattle tick); details: 7-14 day old larvae, packets, 24 hours
Method: (§1) The new compounds were examined in several biological tests. The acaricidal activity was measured against the larvae of the Australian cattle tick (Boophilus microplus). The specificity of interference of the designed compounds with mitochondrial oxidative processes was examined by the differential inhibition of growth of Saccharomyces cerevisiae with ethanol or glucose as substrates.
The determinations of mortalities were carried out in packets on 7-14 day old larvae of the cattle tick Boophilus microplus using the method described by Stone^1. Mortalities were counted 24 hours after the application of the compounds. The activities of DDT and BTS 27271 were also determined.

[2] = tested on: rat liver monoamine oxidase; assay: Inhibition of rat liver monoamine oxidase; assay type: biochemical; details: for Relative inhibition of rat liver monoamine oxidase: relative to I50 value of BTS 27271 = 100
From the text: (§2) Other biochemical tests carried out with the compounds were the measurement of their effects on the uncoupling of oxidative phosphorylation and the inhibition of energy transfer in the mitochondrial respiration sequences. In the light of a known report on the action of certain acaricides as monoamine oxidase (MAO) inhibitors, the new structures were also examined in this test, and their activity compared to the reported MAO inhibition shown by the potent acaricide N-(2,4-dimethylphenyl)-N'-methyl formamidine (BTS 27271).
Purified intact rat liver mitochondria were disrupted by treating with triton X-100 (1% w/v) for 20 mins. at 0°-4°. The MAO activity was measured spectrophotometrically at 360 nm as described by Weissbach, H. et al. ^10. The activity of BTS 27271 was determined by this method and the enzyme inhibition for other compounds was expressed relative to its I50 value.

[3] = tested on: oxidative phosphorylation in rat liver mitochondria; assay: Oxidative phosphorylation in rat liver mitochondria (uncoupling, State 3 respiration); assay type: biochemical; details: for EC50: concentration for 50% effect, read-out: Uncoupling activity of oxidative phosphorylation in rat liver mitochondria, I50
From the text: as §2
Rat liver mitochondria were prepared by the method described by Hogeboon^6 in a medium containing 0.25 M sucrose; 10 mM tris-HCl (pH 7.40); 0.5 mM EDTA and finally suspended in the same medium plus bovine-serum albumin (2 mg/ml). Oxidative phosphorylation was measured polarographically at 30°, as described by Estabrook, R. W. et al.^7. The incubation medium contained 0.25 M sucrose; 10 mM tris-HCl (pH 7.4); 5 mM K2 HPO4 (pH 7.4); 0.5 mM EDTA and bovine-serum albumin (2 mg/ml). DNP was added and control tests were carried out using n-octyl guanidine ^8 and either pyruvate or succinate as substrates.
(§3) State 3 and state 4 respiration rates were determined by the method of Chance, B. et al.^9. Percentage uncoupling in the presence of antimetabolities was calculated from the equation [formula] Percentage inhibition of coupled respiration was calculated from the equation [formula] Relative uncoupling and n-octylguanidine like effects are compared as the concentrations required to give 50% effects (I50).

Saccharomyces cerevisiae = assay: Inhibition of the growth of Saccharomyces cerevisiae on two substrates; assay type: cell-based, Saccharomyces cerevisiae strain L410; details: 24 hours
Method: as §1
Saccharamyces cerevisiae, strain L410, was grown aerobically at 28° in a salts medium containing 1% Difco yeast extract and 0.5% bacteriological peptone as described by Wallace, P. G. et al.^2 with either ethanol (1% w/v) or glucose (5% w/v) as carbon and energy sources. Cells were innoculated at a concentration of 10 μg of dry weight per ml and grown for 24 hours. Growth was measured as described by Clark-Walker et al.^3, and compared with control incubations.

yeast mitochondria = assay: Oxidative phosphorylation in yeast mitochondria (uncoupling, State 3 respiration); assay type: biochemical, yeast (Saccharomyces cerevisiae)
From the text: as §2
Yeast mitochondria were prepared as described by Watson, K. et al.^4. The effects of anti-metabolites on oxidative phosphorylation were determined in a polarograph cell at 30° in the medium described by Haslam, J. M. et al.^5. Substrates were either succinate (4.0 mM) or ethanol (0.3M). Other additions, where indicated, were Sigma ADP and 2:4-dinitrophenol (DNP).
as §3

Tetranychus urticae = assay: Activity against the two-spotted spider mite on discs of dwarf bean leaf; assay type: in vivo; details: read-out: LC50, Tetranychus urticae
Method: Compounds of the invention were tested for their activity against the two-spotted spider mite, Tetranychus urticae. In this test, discs of dwarf bean leaf were treated with varying known amounts of the test compound. On each disc, 15 mites were placed and the sample kept under cover. Mortalities were determined after 24 hours and compared with […] controls.

[4] = ethanol substrate, read-out: Inhibition of the growth of Saccharomyces cerevisiae, ethanol, I50
[5] = glucose substrate, read-out: Inhibition of the growth of Saccharomyces cerevisiae, glucose, I50

Row | Relative inhibition of rat liver monoamine oxidase [2] | IC50 (Saccharomyces cerevisiae; [4]) | SMILES | LC50, toxicity to Boophilus microplus larvae [1] | further results
1 | 0 | 300 µM | FC(F)(F)c1n[nH]c(-c2ccccc2)n1 [20(c), 3(5)-phenyl-5(3)-trifluoromethyl-1,2,4-triazole] | 0.60% | EC50 [3]: 80 µM; Uncoupling activity in rat liver mitochondrial preparations (result in words) [3]: high uncoupling activity; IC50 (Saccharomyces cerevisiae; [5]): 1000 µM; Uncoupling activity in yeast mitochondrial preparations (result in words) (yeast mitochondria): high uncoupling activity
2 | 27 | 30 µM | FC(F)(F)c1n[nH]c(-c2ccc(Cl)cc2)n1 [20(d), 3(5)-(4-chlorophenyl)-5(3)-trifluoromethyl-1,2,4-triazole] | 0.45% | Inhibition of rat liver monoamine oxidase (result in words) [2]: potent inhibition; EC50 [3]: 12 µM; Uncoupling activity in rat liver mitochondrial preparations (result in words) [3]: high uncoupling activity; IC50 (Saccharomyces cerevisiae; [5]): 300 µM; Uncoupling activity in yeast mitochondrial preparations (result in words) (yeast mitochondria): high uncoupling activity
3 | 42 | 10 µM | FC(F)(F)c1n[nH]c(-c2ccc(Cl)c(Cl)c2)n1 [20(e), 3(5)-(3,4-dichlorophenyl)-5(3)-trifluoromethyl-1,2,4-triazole] | 0.38% | Inhibition of rat liver monoamine oxidase (result in words) [2]: potent inhibition; EC50 [3]: 2.3 µM; Uncoupling activity in rat liver mitochondrial preparations (result in words) [3]: high uncoupling activity; IC50 (Saccharomyces cerevisiae; [5]): 300 µM; Uncoupling activity in yeast mitochondrial preparations (result in words) (yeast mitochondria): high uncoupling activity
4 | 2 | 2500 µM | FC(F)(F)c1nncn1-c1ccc(Cl)cc1 [Example 3, 4-(4-chlorophenyl)-3-trifluoromethyl-1,2,4-triazole] | 0.60% | –
5 | 200 | – | FC(F)(F)c1nnc(-c2ccc(Cl)cc2)n1-c1ccc(Cl)cc1 [Example 12, 3,4-bis(4-chlorophenyl)-5-trifluoromethyl-1,2,4-triazole] | > 1% | Inhibition of rat liver monoamine oxidase (result in words) [2]: potent inhibition
6 | 0 | – | FC(F)(F)c1nc[nH]n1 [Example 16, 3-trifluoromethyl-1,2,4-triazole] | 0.50% | –

Continued, compound first:

Row | SMILES | Relative inhibition of rat liver monoamine oxidase [2] | IC50 (Saccharomyces cerevisiae; [4]) | LC50, toxicity to Boophilus microplus larvae [1] | further results
7 | CN=CNc1ccc(C)cc1C [BTS 27271, N-(2,4-dimethylphenyl)-N'-methyl formamidine, reference compound] | 100 | – | 0.2% | –
8 | Clc1ccc(C(c2ccc(Cl)cc2)C(Cl)(Cl)Cl)cc1 [DDT, reference compound] | – | – | 0.78% | LC50 (Tetranychus urticae; 24 h): > 20000 µg/mL
9 | FC(F)(F)c1nncn1-c1ccccc1 [Example 1, 4-Phenyl-3-trifluoromethyl-1,2,4-triazole] | 0 | 2500 µM | 0.62% | –
10 | Cc1ccccc1-n1cnnc1C(F)(F)F [Example 4, 4-(2-methylphenyl)-3-trifluoromethyl-1,2,4-triazole] | 2.5 | – | 0.52% | –
11 | CC(C)(C)c1ccccc1-n1cnnc1C(F)(F)F [Example 5, 4-(2-t-butylphenyl)-3-trifluoromethyl-1,2,4-triazole] | 0 | 100 µM | 2.16% | IC50 (yeast mitochondria; yeast mitochondria, read-out: Half-maximal effect on State 3 respiration by yeast mitochondria): 160 µM
12 | COc1ccccc1-n1cnnc1C(F)(F)F [Example 6, 4-(2-methoxyphenyl)-3-trifluoromethyl-1,2,4-triazole] | 5 | – | 0.38% | –
13 | CCOc1ccc(-n2cnnc2C(F)(F)F)cc1 [Example 7, 4-(4-ethoxyphenyl)-3trifluoromethyl-1,2,4-triazole] | 2.5 | – | 0.61% | LC50 (Tetranychus urticae; discs of dwarf bean leaf, 24 hours): 1400 µg/mL (≈ 5.44 mM)
14 | CC(C)(C)c1ccc(-n2cnnc2C(F)(F)F)cc1 [Example 8, 4-(4-t-butylphenyl)-3-trifluoromethyl-1,2,4-triazole] | 1 | – | 1.8% | –
15 | Cc1ccc(-n2cnnc2C(F)(F)F)c(C)c1 [Example 9, 4-(2,4-Dimethylphenyl)-3-trifluoromethyl-1,2,4-triazole] | – | – | 1.55% | –
16 | Cc1cc(Cl)ccc1-n1cnnc1C(F)(F)F [Example 10, 4-(4-Chloro-2-methylphenyl)-3-trifluoromethyl-1,2,4-triazole] | – | – | 0.87% | –
17 | Cc1nnc(C(F)(F)F)n1-c1ccccc1 [Example 11, 3-Methyl-4-phenyl-5-trifluoromethyl-1,2,4-triazole] | 2 | – | 0.50% | –
18 | FC(F)(F)c1ncn(-c2ccccc2)n1 [Example 13, 1-phenyl-3-trifluoromethyl-1,2,4-triazole] | 400 | – | 2.75% | Inhibition of rat liver monoamine oxidase (result in words) [2]: potent inhibition; Inhibition of rat liver monoamine oxidase compared with BTS 27271 ([2]; times that determined for BTS 27271 in a similar test): four times
